# Laboratory results from ChEMBL document CHEMBL4354864, “Bicyclic α-Iminophosphonates as High Affinity Imidazoline I2 Receptor Ligands for Alzheimer's Disease” (J Med Chem, 2020).
# Active and inactive are the calls of the source. No cut-off for these calls is given here.
# Tests used:
# Mus musculus [1] = test: Antineuroinflammatory activity in mouse model of 5xFAD assessed as reduction in TNFalpha expression at 5 mg/kg, po administered for 4 weeks by qRT-PCR analysis; format: functional, organism-based
# Cytochrome P450 1A2 = target: T1, Cytochrome P450 1A2 (Homo sapiens, UniProt P05177); test: Inhibition of recombinant human CYP1A2 at 10 uM using 3-cyano-7-ethoxycoumarin as substrate incubated for 5 mins followed by substrate addition by fluorescence based assay; format: ADME; details: recombinant enzyme
# T1 sequence (P05177 whole entry): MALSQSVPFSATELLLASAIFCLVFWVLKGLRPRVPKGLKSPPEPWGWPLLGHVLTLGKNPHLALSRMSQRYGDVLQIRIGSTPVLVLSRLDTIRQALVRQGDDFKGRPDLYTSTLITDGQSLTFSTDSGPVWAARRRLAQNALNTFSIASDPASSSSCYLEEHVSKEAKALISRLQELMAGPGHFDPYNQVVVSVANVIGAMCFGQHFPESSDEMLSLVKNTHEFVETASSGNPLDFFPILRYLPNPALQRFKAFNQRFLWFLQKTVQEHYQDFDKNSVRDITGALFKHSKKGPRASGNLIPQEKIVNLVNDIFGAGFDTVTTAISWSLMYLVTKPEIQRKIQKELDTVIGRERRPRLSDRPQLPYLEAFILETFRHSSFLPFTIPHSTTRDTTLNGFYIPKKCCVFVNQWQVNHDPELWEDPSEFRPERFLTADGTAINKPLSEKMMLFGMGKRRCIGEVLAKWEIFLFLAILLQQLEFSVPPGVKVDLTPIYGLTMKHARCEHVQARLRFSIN
# [2] = target: T2, Cholecystokinin receptor type A (Homo sapiens, UniProt P32238); test: Displacement of [125I]CCK-8s from human CCKA incubated for 60 mins by scintillation counting method
# T2 sequence (P32238 whole entry): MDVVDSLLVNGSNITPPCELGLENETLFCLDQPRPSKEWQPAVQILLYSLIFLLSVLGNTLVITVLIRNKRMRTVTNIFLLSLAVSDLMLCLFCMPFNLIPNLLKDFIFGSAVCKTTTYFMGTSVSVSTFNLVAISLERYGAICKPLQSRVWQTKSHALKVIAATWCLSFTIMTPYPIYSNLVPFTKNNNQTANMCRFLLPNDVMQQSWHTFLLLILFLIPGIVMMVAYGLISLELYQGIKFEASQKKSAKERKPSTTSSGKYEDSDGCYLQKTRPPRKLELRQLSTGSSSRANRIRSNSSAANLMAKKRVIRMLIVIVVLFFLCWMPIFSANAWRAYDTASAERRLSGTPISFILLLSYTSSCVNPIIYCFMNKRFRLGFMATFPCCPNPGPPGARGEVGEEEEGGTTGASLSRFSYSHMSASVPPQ
# Mus musculus [3] = test: Effect on FADD in CD-1 mouse at 20 mg/kg, ip administered for 5 days and measured after 1 hr of last dosage by Westernblot analysis; format: functional, organism-based
# Mus musculus [4] = test: Antineuroinflammatory activity in mouse model of 5xFAD assessed as effect on iNOS expression at 5 mg/kg, po administered for 4 weeks by qRT-PCR analysis; format: functional, organism-based
# [5] = Solubility of compound in 1% DMSO incubated for 2 hrs by nephelometry; format: physicochemical
# HeLa [6] = test: Cytotoxicity against human HeLa cells assessed as effect on cell morphology at 100 uM incubated for 3 to 5 days by microscopic analysis; format: cell-based
# [7] = Displacement of [3H]2-BFI from I2IR in Swiss mouse brain cortex incubated for 45 mins by liquid scintillation spectrometry
# [8] = Stability in human liver microsomes at 5 uM incubated for 60 mins by UPLC-MS/MS analysis; format: ADME, Microsome; details: 1 h
# [9] = Cytotoxicity against human MRC5 cells assessed as reduction in cell viability incubated for 3 to 5 days by colorimetric analysis; format: cell-based
# Vero = test: Cytotoxicity against monkey Vero cells assessed as effect on cell morphology at 100 uM incubated for 3 to 5 days by microscopic analysis; format: cell-based; details: chlorocebus sabaeus
# HeLa [10] = test: Cytotoxicity against human HeLa cells assessed as reduction in cell viability at 100 uM incubated for 3 to 5 days by colorimetric analysis; format: cell-based
# MT4 [11] = test: Cytotoxicity against human MT4 cells assessed as effect on cell morphology at 100 uM incubated for 3 to 5 days by microscopic analysis; format: cell-based; details: mt4, 100 µM
# [12] = Solubility of compound in acetonitrile incubated for 2 hrs by nephelometry; format: physicochemical
# [13] = target: T3, Gastrin/cholecystokinin type B receptor (Homo sapiens, UniProt P32239); test: Displacement of [125I]CCK-8s from human CCKB incubated for 60 mins by scintillation counting method
# T3 sequence (P32239 whole entry): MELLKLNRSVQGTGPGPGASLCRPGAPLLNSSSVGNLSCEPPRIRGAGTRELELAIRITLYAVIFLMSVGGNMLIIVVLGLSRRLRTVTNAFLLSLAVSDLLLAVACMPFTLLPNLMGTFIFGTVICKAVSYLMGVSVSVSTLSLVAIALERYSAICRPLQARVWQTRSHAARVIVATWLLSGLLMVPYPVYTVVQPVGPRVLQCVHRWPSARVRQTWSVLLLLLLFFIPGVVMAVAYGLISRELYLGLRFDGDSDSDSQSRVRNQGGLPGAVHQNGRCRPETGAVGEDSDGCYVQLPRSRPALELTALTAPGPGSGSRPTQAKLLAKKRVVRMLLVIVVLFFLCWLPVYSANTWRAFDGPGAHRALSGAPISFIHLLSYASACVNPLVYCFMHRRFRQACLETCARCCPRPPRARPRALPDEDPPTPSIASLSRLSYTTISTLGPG
# [14] = Solubility of compound in methanol incubated for 2 hrs by nephelometry; format: physicochemical
# Mus musculus [15] = test: Induction of hypothermia in CD-1 mouse assessed as reduction in body temperature at 20 mg/kg, ip administered for 5 days by thermometric method; format: functional, organism-based
# [16] = Solubility of compound in 99% PBS buffer incubated for 2 hrs by nephelometry; format: physicochemical
# MT4 [17] = test: Cytotoxicity against human MT4 cells assessed as reduction in cell viability at 100 uM incubated for 3 to 5 days by colorimetric analysis; format: cell-based; details: mt4, 100 µM
# Cytochrome P450 2D6 = Cytochrome P450 2D6 (Homo sapiens, UniProt P10635); test: Inhibition of recombinant human CYP2D6 at 10 uM using AMMC as substrate incubated for 5 mins followed by substrate addition by fluorescence based assay; format: ADME; details: recombinant enzyme
# Sequence of Cytochrome P450 2D6 (P10635 whole entry): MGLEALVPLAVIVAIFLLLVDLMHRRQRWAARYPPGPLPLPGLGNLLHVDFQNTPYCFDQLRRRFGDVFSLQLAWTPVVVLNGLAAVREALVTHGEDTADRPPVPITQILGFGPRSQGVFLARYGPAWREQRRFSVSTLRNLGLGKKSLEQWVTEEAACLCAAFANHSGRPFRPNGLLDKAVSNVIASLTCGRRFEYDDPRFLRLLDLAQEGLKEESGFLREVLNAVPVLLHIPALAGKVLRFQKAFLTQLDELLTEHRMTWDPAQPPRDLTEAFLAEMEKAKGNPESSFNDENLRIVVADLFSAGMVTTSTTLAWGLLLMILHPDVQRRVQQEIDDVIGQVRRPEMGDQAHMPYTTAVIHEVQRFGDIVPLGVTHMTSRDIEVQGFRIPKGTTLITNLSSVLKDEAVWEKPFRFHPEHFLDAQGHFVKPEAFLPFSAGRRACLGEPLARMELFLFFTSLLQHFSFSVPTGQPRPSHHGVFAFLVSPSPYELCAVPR
# [18] = Solubility of compound in water incubated for 2 hrs by nephelometry; format: physicochemical; details: buffer
# [19] = Chemical stability of compound by HPLC analysis; format: physicochemical
# [20] = Displacement of [3H]2-BFI from I2IR in Sprague-Dawley rat brain cortex incubated for 45 mins by liquid scintillation spectrometry
# [21] = Stability in mouse liver microsomes at 5 uM incubated for 60 mins by UPLC-MS/MS analysis; format: ADME, Microsome; details: 1 h
# Mus musculus [22] = test: Cognitive enhancing effect in mouse model of 5xFAD assessed as increase in recognition memory at 5 mg/kg, po administered for 28 days and measured after 24 hrs of last dosage by novel object recognition test; format: functional, organism-based
# [23] = Stability in rat liver microsomes at 5 uM incubated for 60 mins by UPLC-MS/MS analysis; format: ADME, Microsome; details: 1 h
# [24] = Effective permeability of compound by PAMPA-BBB assay; format: ADME; details: read-out: Peff
smiles,measurement,setting,value
CCOP(=O)(OCC)C1(c2ccccc2)N=CC2C(=O)N(c3ccc(F)c(Cl)c3)C(=O)C21 (racemic),Activity,Mus musculus [1],Active
same,inhibition (INH),Cytochrome P450 1A2,Not Active
same,IC50,[2],5.94 µM
same,Activity,Mus musculus [3],inactive
same,Activity,Mus musculus [4],Active
same,solubility kinetic at 2 h,[5],92 µM
same,Activity,HeLa [6],Non-Toxic
same,pKi,[7],6.41
same,Stability,[8],Stable
same,CC50,[9],> 100 µM
same,Activity,Vero,Non-Toxic
same,Activity,HeLa [10],Non-Toxic
same,Activity,MT4 [11],Non-Toxic
same,solubility,[12],Soluble
same,IC50,[13],> 10 µM
same,solubility,[14],Soluble
same,T,Mus musculus [15],inactive
same,solubility kinetic at 2 h,[16],92 µM
same,Activity,MT4 [17],Non-Toxic
same,inhibition (INH),Cytochrome P450 2D6,Not Active
same,solubility,[18],Soluble
same,Stability,[19],100%
same,pKi,[20],6.92
same,Stability,[21],Stable
same,Activity,Mus musculus [22],Active
same,Stability,[23],Stable
same,Papp,[24],9.7 ×10⁻⁶ cm/s
